Experimental data from the supplement of paper PMC10307832.

Tests used:
Assay in all cases: relative viability (nuclei count vs DMSO), 5 days (fraction); higher = more cells survive
Bleomycin + Linsitinib = compound: CC1=C(N=C(N=C1N)[C@H](CC(=O)N)NC[C@@H](C(=O)N)N)C(=O)N[C@@H]([C@H](C2=CN=CN2)OC3C(C(C(C(O3)CO)O)O)OC4C(C(C(C(O4)CO)O)OC(=O)N)O)C(=O)N[C@H](C)[C@H]([C@H](C)C(=O)N[C@@H]([C@@H](C)O)C(=O)NCCC5=NC(=CS5)C6=NC(=CS6)C(=O)NCCC[S+](C)C)O [Bleomycin] + C[C@]1(O)C[C@@H](c2nc(-c3ccc4ccc(-c5ccccc5)nc4c3)c3c(N)nccn32)C1 [Linsitinib] (partner 1 µM); settings: main component drawn
In short: (§1)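 Lung cancer cell lines were seeded in 1536-well plates and dosed by pin tool the next day, with either a single drug or a fixed anchor-drug dose combined with five library-drug doses (not always all listed) spaced in √10 steps. Five days later, one step fixed the cells and stained their nuclei (final 0.05% Triton X-100, 1% formaldehyde, 1 ug/ml Hoechst), and nuclei were counted on 4× images. Relative viability is the nuclei count in treated wells divided by the count in vehicle wells, and each value is the median of duplicate plates.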

Etoposide + Crizotinib = compound: COc1cc([C@@H]2c3cc4c(cc3[C@@H](O[C@@H]3O[C@@H]5CO[C@@H](C)O[C@H]5[C@H](O)[C@H]3O)[C@H]3COC(=O)[C@H]23)OCO4)cc(OC)c1O [Etoposide] + C[C@@H](Oc1cc(-c2cnn(C3CCNCC3)c2)cnc1N)c1c(Cl)ccc(F)c1Cl [Crizotinib] (partner 1 µM)
In short: as §1

Etoposide + Pemetrexed = compound: COc1cc([C@@H]2c3cc4c(cc3[C@@H](O[C@@H]3O[C@@H]5CO[C@@H](C)O[C@H]5[C@H](O)[C@H]3O)[C@H]3COC(=O)[C@H]23)OCO4)cc(OC)c1O [Etoposide] + Nc1nc2[nH]cc(CCc3ccc(C(=O)N[C@@H](CCC(=O)O)C(=O)O)cc3)c2c(=O)[nH]1 [Pemetrexed] (partner 0.2 µM)
In short: as §1

Etoposide + Olaparib = compound: COc1cc([C@@H]2c3cc4c(cc3[C@@H](O[C@@H]3O[C@@H]5CO[C@@H](C)O[C@H]5[C@H](O)[C@H]3O)[C@H]3COC(=O)[C@H]23)OCO4)cc(OC)c1O [Etoposide] + O=C(c1cc(Cc2n[nH]c(=O)c3ccccc23)ccc1F)N1CCN(C(=O)C2CC2)CC1 [Olaparib] (partner 8 µM)
In short: as §1

| Cell Line | relative viability (Bleomycin + Linsitinib; first compound 0.01 µM) | relative viability (Bleomycin + Linsitinib; first compound 0.03162 µM) | relative viability (Bleomycin + Linsitinib; first compound 0.1 µM) | relative viability (Bleomycin + Linsitinib; first compound 0.3162 µM) | relative viability (Bleomycin + Linsitinib; first compound 1 µM) | relative viability (Etoposide + Crizotinib; first compound 0.01 µM) | relative viability (Etoposide + Crizotinib; first compound 0.03162 µM) | relative viability (Etoposide + Crizotinib; first compound 0.1 µM) | relative viability (Etoposide + Crizotinib; first compound 0.3162 µM) | relative viability (Etoposide + Crizotinib; first compound 1 µM) | relative viability (Etoposide + Pemetrexed; first compound 0.01 µM) | relative viability (Etoposide + Pemetrexed; first compound 0.03162 µM) | relative viability (Etoposide + Pemetrexed; first compound 0.1 µM) | relative viability (Etoposide + Pemetrexed; first compound 0.3162 µM) | relative viability (Etoposide + Pemetrexed; first compound 1 µM) | relative viability (Etoposide + Olaparib; first compound 0.01 µM) | relative viability (Etoposide + Olaparib; first compound 0.03162 µM) | relative viability (Etoposide + Olaparib; first compound 0.1 µM) | relative viability (Etoposide + Olaparib; first compound 0.3162 µM) | relative viability (Etoposide + Olaparib; first compound 1 µM) |
| --- | --- | --- | --- | --- | --- | --- | --- | --- | --- | --- | --- | --- | --- | --- | --- | --- | --- | --- | --- | --- |
| NCI-H358 | 0.674 | 0.738 | 0.666 | 0.455 | 0.39 | 0.689 | 0.441 | 0.518 | 0.261 | 0.139 | 0.179 | 0.186 | 0.178 | 0.168 | 0.157 | 0.692 | 0.519 | 0.521 | 0.104 | 0.0937 |
| RERF-LC-KJ | 0.617 | 0.502 | 0.502 | 0.233 | 0.22 | 0.885 | 0.798 | 0.773 | 0.685 | 0.46 | 0.454 | 0.507 | 0.48 | 0.434 | 0.445 | 0.827 | 0.877 | 0.861 | 0.633 | 0.417 |
| NCI-H23 | 0.292 | 0.253 | 0.225 | 0.152 | 0.137 | 0.365 | 0.471 | 0.402 | 0.297 | 0.169 | 0.659 | 0.697 | 0.472 | 0.411 | 0.216 | 0.263 | 0.283 | 0.295 | 0.174 | 0.166 |
| HOP-62 | 0.485 | 0.554 | 0.335 | 0.135 | 0.112 | 0.96 | 0.998 | 0.799 | 0.681 | 0.157 | 0.389 | 0.361 | 0.378 | 0.318 | 0.243 | 0.48 | 0.478 | 0.557 | 0.197 | 0.215 |
